# US20040198752A1, “Method for inhibiting retinoid skin damage” (priority 2001, published 2004)
# Where two headings read alike, the source gives them in different places.
# How the values were obtained:
# [1] = 0.1, 0.5 and 1 mg/kg/day; cited from earlier work
# [2] = tested on: organ-cultured human skin; assay: RA-induced epidermal hyperplasia in human skin organ culture; assay type: cell-based
# Text: Immediately upon biopsy, the tissue was immersed in culture medium consisting of Keratinocyte Basal Medium (KBM) (Clonetics, Inc., Walkersville, Md.). KBM is a low-Ca^2+, serum-free modification of MCDB-153 medium optimized for high-density keratinocyte growth (Wille J, Jr., Pittelkow M R, Shipley G D, Scott R E. Integrated control of growth and differentiation of normal human prokeratinocytes cultured in serum-free medium: clonal analyses, growth kinetics, and cell cycle studies. J Cell Physiol 1984;121:31-44). It was supplemented with CaCl2 to bring the final Ca^2+ concentration to 1.4 mM. After transport to the laboratory on ice, the biopsies were incubated in a 96-well dish containing 200 μL of Ca^2+-supplemented KBM with or without additional treatments. Cultures were incubated at 37° C. in an atmosphere of 95% air and 5% CO2. Incubation was for 8 days, with change of medium containing the various treatments every 2 days. […] For the experiment shown in FIG. 4, human skin keratome biopsies were subjected to organ culture in the presence or absence of 3 μM RA followed by RNA isolation and Northern blotting as previously described (Stoll SW, Elder J T. Retinoid regulation of heparin-binding EGF-lke growth factor gene expression in human keratinocytes and skin. Exp Dermatol, 1998;7:391-397), except that the concentration of Ca^2+ was adjusted to 0.1 mM or 1.4 mM by the addition of CaCl2. cDNA insert probes for detection of HB-EGF and 36B4 were prepared and labeled by random priming, as previously described (Stoll and Elder, Supra., 1998).
# [3] = tested on: tyrosine kinases residing outside the c-erbB family; details: 1 μM; cited from earlier work
# [4] = tested on: human epidermal keratinocytes; assay: Proliferation assay, keratinocytes in monolayer culture; assay type: cell-based
# Description: (§1) Normal human epidermal keratinocytes were obtained from skin biopsies and maintained in monolayer culture using Keratinocyte Growth Medium (KGM) (Clonetics, Inc., Walkersville, Md.). KGM contains the same basal medium as KBM, but is further supplemented with a mixture of growth factors including 0.1 ng/mL EGF, 0.5 μg/mL insulin, and 2% bovine pituitary extract. In some experiments, the HaCaT line of immortalized human epidermal keratinocytes (Boukamp P, Petrussevska R T, Breitkreutz D, Hornung J, Markham A, Fusenig N E. Normal keratinization in a spontaneously immortalized aneuploid human keratinocyte cell line. J Cell Biol, 1988;106:761-771) was used in place of normal keratinocytes. We (J.V., S.W.S., and J.T.E., unpublished observations) and others (Chaturvedi V, Qin J Z, Denning M F, Choubey D, Diaz M O, Nickoloff B J. Apoptosis in proliferating, senescent, and immortalized keratinocytes. J Biol Chem, 1999;274:23358-23367) have observed that HaCaT cells grow well in KGM. Therefore, HaCaT cells and NHK were propagated in exactly the same manner. Fibroblasts obtained from human skin were grown in monolayer culture using Dulbecco's modified minimal essential medium supplemented with nonessential amino acids and 10% fetal bovine serum (DMEM-FBS). Both keratinocytes and fibroblasts were maintained at 37° C. in an atmosphere of 95% air and 5% CO2. Cells were sub-cultured by exposure to trypsin/EDTA and used at passage 2-3.
# For proliferation assays, cells were initially plated at 4×10^4 cells per well of a 24-well dish in growth medium (KGM for keratinocytes or DMEM-FBS for fibroblasts). After allowing cells to attach for 1 to 2 hours, the medium was removed and the cells washed twice in KBM (keratinocytes) or Ca^2+-supplemented KBM (fibroblasts). The cells were then incubated for 48 hours with or without additional reagents as indicated in Results. At the end of the incubation period, the cells were harvested by trypsinization and enumerated using an automated particle counter (Coulter Electronics, Hialeah, Fla.).
# [5] = 51Cr-release cytotoxicity assay; assay type: cell-based, human; details: human, human epidermal keratinocytes; KBM + Ca2+; read-out: Cytotoxicity (ID50)
# Description: (§2) A ^51Cr-release assay was used to measure cytotoxic effects of the irreversible c-erbB-RTK antagonist. For this assay, keratinocytes were initially plated at 2×10^4 cells per well of a 24-well dish in growth medium (KGM) and treated with 1 μCi per well of ^51Cr. After allowing cells to incorporate ^51Cr for one day, the non-incorporated isotope was removed and the cells washed twice in KBM. The cells were then incubated for 18 hours with or without treatments as indicated in Results. At the end of the incubation period, the percentage of Incorporated ^51Cr that was released into the culture medium was determined.
# [6] = tested on: human epidermal keratinocytes; assay: 51Cr-release cytotoxicity assay; assay type: cell-based; details: for IC50: read-out: Cytotoxicity (ID50)
# Description: as §2
# HB-EGF mRNA = HB-EGF mRNA in human skin organ culture (Northern blotting); assay type: cell-based; details: 3 μM RA, 8 hours
# Text: Immediately upon biopsy, the tissue was immersed in culture medium consisting of Keratinocyte Basal Medium (KBM) (Clonetics, Inc., Walkersville, Md.). KBM is a low-Ca^2+, serum-free modification of MCDB-153 medium optimized for high-density keratinocyte growth (Wille J, Jr., Pittelkow M R, Shipley G D, Scott R E. Integrated control of growth and differentiation of normal human prokeratinocytes cultured in serum-free medium: clonal analyses, growth kinetics, and cell cycle studies. J Cell Physiol 1984;121:31-44). It was supplemented with CaCl2 to bring the final Ca^2+ concentration to 1.4 mM. After transport to the laboratory on ice, the biopsies were incubated in a 96-well dish containing 200 μL of Ca^2+-supplemented KBM with or without additional treatments. Cultures were incubated at 37° C. in an atmosphere of 95% air and 5% CO2. Incubation was for 8 days, with change of medium containing the various treatments every 2 days. […]
# human dermal fibroblasts = assay: RA-induced survival of dermal fibroblasts in low-Ca2+ monolayer culture; assay type: cell-based; details: 3 μM RA, 48 hours, KBM 0.15 mM CaCl2
# Description: as §1, with “Cells were sub-cultured by exposure to trypsin/EDTA and used at passage 2-3.” left out
# [7] = examined at 1 μM, 5 μM and 10 μM
structure (smiles),measurement,setting,value
"CC1=C(/C=C/C(C)=C/C=C/C(C)=C\C(=O)O)C(C)(C)CCC1 [Accutane, 13-cis-retinoic acid]",clearing of disease,[1],all dosages provided initial clearing of disease
"CNc1cc2c(Nc3cccc(Br)c3)ncnc2cn1 [PD 158780, N^4-(3-Bromo-phenyl)-N^6-methyl-pyrido[3,4-d]pyrimidine-4,6-diamine]",antiproliferative activity,[2]; [7],detected only at 5 and 10 μM
same,effects on RA-stimulated hyperplasia,[2]; [7],reversed the effects of RA
"C=CC(=O)Nc1cc2c(Nc3cccc(Br)c3)ncnc2cc1OCCCN1CCOCC1 [PD 169540, N-[4-(3-bromo-phenylamino)-7-(3-morpholin-4-yl-propoxy)-quinazolin-6-yl]-acrylamide]",effect on tyrosine kinases residing outside the c-erbB family,[3],without effect
same,Inhibition of Growth (ID50),[4]; +EGF,6 nM
same,Inhibition of Growth (ID50),[4]; +insulin/pituitary extract,900 nM
same,Inhibition of Growth (ID50),[4]; KBM + Ca2+,8 nM
same,"relative potency, organ culture hyperplasia and monolayer proliferation",[4]; comparison of the two c-erbB-RTK antagonists,clearly the more potent compound in both assays
same,IC50 at 18 h,[5],> 1000 nM
same,IC50,[6]; +EGF,> 1000 nM
same,IC50,[6]; +insulin/pituitary extract,> 1000 nM
same,cytotoxicity by 51Cr release,[6]; any of the concentrations tested,virtually no cytotoxicity
same,reversal of RA-induced epidermal hyperplasia,"[2]; 0.5 μM and 0.1 μM inhibitor, 3 μM RA","also effective, albeit less so than 1 μM"
same,reversal of RA-induced epidermal hyperplasia,"[2]; 1 μM inhibitor, 3 μM RA",reversed the effects of 3 μM RA
same,RA-stimulated epidermal thickness by keratinocyte counts (keratinocytes/block),"[2]; RA + inhibitor, FIG. 2",reduction in hyperplasia
same,reversal of RA-induced epidermal hyperplasia,[2]; concentrations lower than 0.1 μM,no effect
"CC1=C(/C=C/C(C)=C/C=C/C(C)=C/C(=O)O)C(C)(C)CCC1 [RA, all-trans retinoic acid, reference compound]",HB-EGF mRNA induction,HB-EGF mRNA; 1.4 mM Ca2+,clearly dominant over the inhibitory effect of 1.4 mM Ca^2+
same,HB-EGF mRNA induction,HB-EGF mRNA; low-Ca2+ (0.1 mM),strongly potentiated
same,number of Ki-67-positive cells,"[2]; 3 μM RA, 8 days",much larger number of Ki-67-positive cells than did the controls
same,epidermal thickness (number of epidermal keratinocytes),"[2]; 3 μM RA, 8 days, 1.4 mM Ca2+",The epidermis was thickened
same,preservation of epithelial viability,[2]; RA added to low-Ca2+ organ cultures,up to 12 days
same,fibroblast survival,human dermal fibroblasts,markedly and significantly promoted fibroblast survival
